Measured values: patent EP0170611A1, “Process for protecting keratinic material against deterioration by keratin devouring insects” (priority 1984, dated 1986)

Legend:
[1] = test system: Larven des Pelzkäfers (Attagenus piceus Oliv.); assay: Fastness test against fur beetle larvae (SNV 195901) on wool treated in the exhaust bath, Example 4; type: in vivo; settings: 15 larvae, 14 days, 28°C, 65 % r.h.
Protocol: (§1) Von den zu prüfenden Verbindungen Nr. 101, 102, 201, 203, 205, 301 und 302 werden Stammlösungen durch Auflösung von jeweils 50 mg der Wirksubstanz in 25 ml Aethylenglykolmonoäthyläther bereitet.
(§2) 3 g schwere, gut vorgenetzte Wollgewebstücke werden in eine 30°C warme wässrige Flotte eingebracht, die folgende Bestandteile enthält: • x ppm, bezogen auf das Wollgewicht, der jeweils zu prüfenden Verbindung (eine entsprechende Menge der oben beschriebenen Stammlösung wird der Flotte zugegeben). • 1 X, bezogen auf das Wollgewicht, 80%-ige Essigsäure. • 4 X, bezogen auf das Wollgewicht, Ammoniumsulfat. • 0,5 g/1 Flotte eines Netz- und Dispergiermittels.
(§3) Die Temperatur der Flotte wird innerhalb 20 Minuten auf 98°C gesteigert und 60 Minuten bei dieser Temperatur belassen. Nach dem Abkühlen werden die Muster einzeln mit Wasser gespült und bei Raumtemperatur getrocknet.
(§4) Die mit den zu prüfenden Verbindungen ausgerüsteten trockenen Wollmuster werden der Mottenechtheitsprüfung (Frassschutz gegen die Kleidermotte Tineola bisselliella Hum.) sowie der Echtheitsprüfung gegen Larven des Pelzkäfers (Attagenus piceus Oliv.) und Teppichkäfers (Anthrenus flavipes var. seminiveus) gemäss der Vorschrift des Schweizer Normenverbandes SNV 195901 unterworfen.
(§5) Es werden jeweils Larven von Tineola und Larven von Anthrenus und 6 bis 7 Wochen alte Larven von Attagenus zur Prüfung verwendet.
(§6) Aus dem behandelten Wollflanellmuster werden Stücke gleicher Grösse ausgeschnitten und 14 Tage lang bei konstanter Temperatur (28°C) und konstanter relativer Luftfeuchtigkeit (65 %) dem Angriff (Frass) von je 15 Larven des entsprechenden Schädlings ausgesetzt. Die Beurteilung für alle 3 Schädlinge erfolgt nach dem Gewichtsverlust des Wollmusters.
(§7) .Aus der nachfolgenden Tabelle 1 ist für die geprüften Verbindungen die jeweilige Einsatzkonzentration (in ppm, bezogen auf das Wollgewicht) und der durch den Schädlingsfrass verursachte Gewichtsverlust (in mg) zu entnehmen: […]

[2] = test system: Larven des Teppichkäfers (Anthrenus flavipes var. seminiveus); assay: Fastness test against carpet beetle larvae (SNV 195901) on wool treated in the exhaust bath, Example 4; type: in vivo; settings: 15 larvae, 14 days, 28°C, 65 % r.h.
Protocol: as §1, §2, §3, §4, §5, §6, §7

[3] = test system: Larven des Teppichkäfers (Anthrenus flavipes var. seminiveus); assay: Fastness test against carpet beetle larvae (SNV 195901) on wool treated by pad (Foulard) application, Example 5; type: in vivo; settings: 15 larvae, 14 days, 28°C, 65 % r.h.
From the text: as §4, §5, §6
(§8) 12,5 ml der jeweiligen, die zu prüfenden Verbindungen Nr. 101, 102, 201, 203, 205, 301 und 302 enthaltenden Stammlösung gemäss Beispiel 4 werden mit Aethylenglykolmonoäthyläther, der 1 g/1 eines Netz- und Dispergiermittels enthält, verdünnt. Die'Verdünnung erfolgt in der Weise, dass in der erhaltenen Foulardflotte die Konzentration der jeweils zu prüfenden Verbindung so eingestellt ist, dass auf dem Wollgewebe nach dem foulardieren x ppm des jeweiligen Wirkstoffes vorhanden sind (siehe Tabelle 2). Jeweils 3 ml der erhaltenen Lösung werden in eine Kristallisierschale gegeben. Darin wird eine geköderte Rondelle aus Wollgewebe mit Hilfe einer Pinzette ca. 3 Sekunden lang benetzt. Die feuchten Rondellen werden dann zwischen 2 Aluminiumfolien foulardiert, und zwar derart, dass die abgequetschten Rondellen je 100 X, bezogen auf ihr Gewicht, an Flotte aufgenommen haben. Die feuchten Rondellen werden an der Luft getrocknet und den gleichen biologischen Prüfungen unterworfen, die in Beispiel 4 beschrieben sind. Die Ergebnisse sind in der nachfolgenden Tabelle 2 zusammengefassst: […]

[4] = test system: die in Beispiel 4 genannten keratinfressenden Schädlinge; assay: Protection of wool articles treated by spray application, Example 7; type: in vivo, Tineola bisselliella, Attagenus piceus, Anthrenus flavipes; settings: 0,5%-ige solution sprayed, 2 x 15 g/m^2; about 400 ppm active on the material
From the text: Beispiel 7: Es wird jeweils eine 0,5%-ige Lösung der Verbindungen Nr. 101, 201, 202 und 301 in Methylenchlorid, Trichloräthylen oder einer tiefsiedenden Benzinfraktion angesetzt. Wollartikel werden mit Hilfe einer üblichen Sprüheinrichtung mit diesen Lösungen besprüht, so dass 2 x 15 g/m^2 an Wirkstofflösung appliziert werden. Bei einem Ausnützungseffekt des Aerosols von 30 % befinden sich dann etwa 400 ppm der jeweiligen Wirkstoffverbindung auf dem Material.

[5] = test system: die in Beispiel 4 genannten keratinfressenden Schädlinge; assay: Protection of wool articles treated in a dry-cleaning liquor, Example 6; type: in vivo, Tineola bisselliella, Attagenus piceus, Anthrenus flavipes; settings: 10%-ige solution diluted 1:200 by volume in dry-cleaning solvent; wool spun to ca. 100 % solvent content, dried
From the text: Beispiel 6: Es wird jeweils eine 10%-ige Lösung der Verbindungen Nr. 101, 201, 202 und 301 in Aethylenglykolmonomethyläther hergestellt. Ein Volumenteil dieser Lösung wird mit 200 Volumen- 'teilen eines zur Trockenreinigung geeigneten Lösungsmittels, z.B. einer passenden Benzinfraktion oder Perchloräthylen, verdünnt. Gewünschtenfalls können noch reinigungsfördernde Zusätze beigefügt werden. Wollartikel werden nun wie üblich in diesen Reinigungsflüssigkeiten behandelt und anschliessend auf einen Lösungsmittelgehalt von ca. 100 % des Wollgewichtes abgeschleudert.

[6] = test system: Kleidermotte Tineola bisselliella Hum.; assay: Moth-proofing test (SNV 195901) on wool treated by pad (Foulard) application, Example 5; type: in vivo; settings: 15 larvae, 14 days, 28°C, 65 % r.h.
From the text: as §4, §5, §6, §8

[7] = test system: Larven des Pelzkäfers (Attagenus piceus Oliv.); assay: Fastness test against fur beetle larvae (SNV 195901) on wool treated by pad (Foulard) application, Example 5; type: in vivo; settings: 15 larvae, 14 days, 28°C, 65 % r.h.
From the text: as §4, §5, §6, §8

[8] = test system: Kleidermotte Tineola bisselliella Hum.; assay: Moth-proofing test (feeding protection, SNV 195901) on wool treated in the exhaust bath, Example 4; type: in vivo; settings: 15 larvae, 14 days, 28°C, 65 % r.h.
Protocol: as §1, §2, §3, §4, §5, §6, §7

[9] = Einsatzkonzentration 30 ppm on wool weight
[10] = Einsatzkonzentration 300 ppm on wool weight
[11] = Einsatzkonzentration 250 ppm on wool
[12] = Einsatzkonzentration 30 ppm on wool
[13] = Einsatzkonzentration 125 ppm on wool weight
[14] = Einsatzkonzentration 125 ppm on wool
[15] = Einsatzkonzentration 7,5 ppm on wool
[16] = Einsatzkonzentration 15 ppm on wool
[17] = Einsatzkonzentration 7,5 ppm on wool weight

## CC#CC(OC(=O)C1C(C=C(Cl)Cl)C1(C)C)c1cccc(Oc2ccccc2)c1 (mixture of isomers) [Verbindung 101, (±)-cis-2,2-Dimethyl-3-(2,2-dichlorvinyl)-cyclopropancarbonsäure-3-phenoxy-α-propin-1-yl-benzylester]
[1]; [9]
  Gewichtsverlust: 9,0 mg
[2]; [10]
  Gewichtsverlust: 9,2 mg
[3]; [11]
  Gewichtsverlust: 1,1 mg
[4]
  Schutz gegen keratinfressende Schädlinge: gegen die in Beispiel 4 genannten keratinfressenden Schädlinge geschützt
[5]
  Schutz gegen keratinfressende Schädlinge: hervorragend gegen die in Beispiel 4 genannten keratinfressenden Schädlinge geschützt
[6]; [12]
  Gewichtsverlust: 1,0 mg
[7]; [12]
  Gewichtsverlust: 2,0 mg
[8]; [9]
  Gewichtsverlust: 1,2 mg

## CC1(C)C(C=C(Cl)Cl)C1C(=O)OCc1cccc(Oc2ccccc2)c1 (mixture of isomers) [Verbindung 205, (+)-cis, trans-2,2-Dimethyl-3-(2,2-dichlorvinyl)-cyclopropancarbonsäure-3-phenoxybenzylester]
[1]; [9]
  Gewichtsverlust: 14,9 mg
[2]; [13]
  Gewichtsverlust: 29,2 mg
[3]; [14]
  Gewichtsverlust: 11,0 mg
[6]; [15]
  Gewichtsverlust: 5,5 mg
[7]; [16]
  Gewichtsverlust: 32,5 mg
[8]; [17]
  Gewichtsverlust: 5,8 mg

## CC1(C)[C@@H](C=C(Cl)Cl)[C@@H]1C(=O)OC(C#N)c1ccc(F)c(Oc2ccccc2)c1 (relative stereo) [Verbindung 302, (+)-trans-2,2-Dimethyl-3-(2,2-dichlorvinyl)-cyclopropancarbonsäure-3-phenoxy-4-fluor-a-cyanobenzylester]
[1]; [17]
  Gewichtsverlust: 51,4 mg
[2]; [13]
  Gewichtsverlust: 48,0 mg
[3]; [14]
  Gewichtsverlust: 16,3 mg
[7]; [15]
  Gewichtsverlust: 9,3 mg
[8]; [17]
  Gewichtsverlust: 0,4 mg

## CC1(C)C(C=C(Cl)Cl)C1C(=O)OCc1cccc(Oc2ccccc2)c1 (racemic) [Verbindung 201, (+)-cis-2,2-Dimethyl-3-(2,2-dichlorvinyl)-cyclopropancarbonsäure-3-phenoxybenzylester]
[1]; [9]
  Gewichtsverlust: 4,3 mg
[2]; [13]
  Gewichtsverlust: 18,9 mg
[3]; [14]
  Gewichtsverlust: 1,2 mg
[4]
  Schutz gegen keratinfressende Schädlinge: gegen die in Beispiel 4 genannten keratinfressenden Schädlinge geschützt
[5]
  Schutz gegen keratinfressende Schädlinge: hervorragend gegen die in Beispiel 4 genannten keratinfressenden Schädlinge geschützt
[6]; [15]
  Gewichtsverlust: 1,9 mg
[7]; [16]
  Gewichtsverlust: 3,7 mg
[8]; [17]
  Gewichtsverlust: 1,7 mg

## CC1(C)[C@@H](C=C(Cl)Cl)[C@@H]1C(=O)OCc1cccc(Oc2ccccc2)c1 (relative stereo) [Verbindung 203, (+)-trans-2,2-Dimethyl-3-(2,2-dichlorvinyl)-cyclopropancarbonsäure-3-phenoxybenzylester]
[1]; [9]
  Gewichtsverlust: 54,2 mg
[2]; [13]
  Gewichtsverlust: 68,3 mg
[3]; [14]
  Gewichtsverlust: 28,1 mg
[6]; [15]
  Gewichtsverlust: 17,4 mg
[7]; [16]
  Gewichtsverlust: 39,3 mg
[8]; [17]
  Gewichtsverlust: 26,9 mg

## CC1(C)C(C=C(Cl)Cl)C1C(=O)OC(C#N)c1cccc(Oc2ccccc2)c1 (mixture of isomers) [Verbindung 202, (±)-cis-2,2-Dimethyl-3-(2,2-dichlorvinyl)-cyclopropancarbonsäure-3-phenoxy-a-cyano-benzylester]
[4]
  Schutz gegen keratinfressende Schädlinge: gegen die in Beispiel 4 genannten keratinfressenden Schädlinge geschützt
[5]
  Schutz gegen keratinfressende Schädlinge: hervorragend gegen die in Beispiel 4 genannten keratinfressenden Schädlinge geschützt

## CC#CC(OC(=O)[C@H]1[C@H](C=C(Cl)Cl)C1(C)C)c1cccc(Oc2ccccc2)c1 (relative stereo) [Verbindung 102, (+)-trans-2,2-Dimethyl-3-(2,2-dichlorvinyl)-cyclopropancarbonsäure-3-phenoxy-a-propin-l-yl-benzylester]
[1]; [9]
  Gewichtsverlust: 43,4 mg
[2]; [10]
  Gewichtsverlust: 51,7 mg
[3]; [11]
  Gewichtsverlust: 27,1 mg
[6]; [12]
  Gewichtsverlust: 4,4 mg
[7]; [12]
  Gewichtsverlust: 15,3 mg
[8]; [9]
  Gewichtsverlust: 2,6 mg

## CC1(C)C(C=C(Cl)Cl)C1C(=O)OC(C#N)c1ccc(F)c(Oc2ccccc2)c1 (mixture of isomers) [Verbindung 301, (±)-cis-2,2-Dimethyl-3-(2,2-dichlorvinyl)-cyclopropancarbonsäure-3-phenoxy-4-fluor-a-cyanobenzylester]
[1]; [17]
  Gewichtsverlust: 11,4 mg
[2]; [13]
  Gewichtsverlust: 14,9 mg
[3]; [14]
  Gewichtsverlust: 0,1 mg
[4]
  Schutz gegen keratinfressende Schädlinge: gegen die in Beispiel 4 genannten keratinfressenden Schädlinge geschützt
[5]
  Schutz gegen keratinfressende Schädlinge: hervorragend gegen die in Beispiel 4 genannten keratinfressenden Schädlinge geschützt
[7]; [15]
  Gewichtsverlust: 0,8 mg
[8]; [17]
  Gewichtsverlust: 0 mg
